The target in one series is Pim-2 (Homo sapiens (Human), UniProt Q9P1W9). The series is described as follows: ADP-Glo Kinase Assay, Pim-2. The settings on record: 1 μM compound; for inhibition at 1 µM: read-out: Pim-2 % INH (1 μM). The class given is biochemical. The method in brief: (§1)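 Buffer was MOPS 5 mM (pH 7.5) with MgCl2, EDTA and DTT; ATP set at apparent Km per kinase. Compounds were diluted in assay buffer to 1000 nM. Kinase-generated ADP was converted to luciferase signal and normalised to percent inhibition.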
Chain of Pim-2 (Q9P1W9 whole entry): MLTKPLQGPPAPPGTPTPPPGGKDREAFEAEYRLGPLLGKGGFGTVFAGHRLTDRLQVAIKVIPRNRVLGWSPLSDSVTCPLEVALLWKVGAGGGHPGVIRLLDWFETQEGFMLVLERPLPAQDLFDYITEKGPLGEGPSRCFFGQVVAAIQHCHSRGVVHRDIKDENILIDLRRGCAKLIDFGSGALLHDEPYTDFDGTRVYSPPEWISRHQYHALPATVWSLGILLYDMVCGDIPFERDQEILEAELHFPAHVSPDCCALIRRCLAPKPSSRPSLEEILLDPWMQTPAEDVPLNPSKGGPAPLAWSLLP
For orientation: ADP-Glo first removes unused ATP, then detects ADP through luciferase.

For the next series, the target named is Pim-3 (Homo sapiens (Human), UniProt Q86V86). Description: ADP-Glo Kinase Assay, Pim-3. The class given is biochemical. Particulars: 1 μM compound; for inhibition at 1 µM: read-out: Pim-3 % INH (1 μM). In outline: as §1
A further series relates to HEL92 cells. The series is described as follows: Growth inhibition, MTS assay, HEL92. Particulars: MTS cell viability, read-out: HEL92 ED50. The format is cell-based, Human. (Formazan colour is commonly taken as a measure of viable cells.)
Another series deals with MV4-11 cells. The series is described as follows: Growth inhibition, MTS assay, MV4-11. The class given is cell-based, Human. Particulars: MTS cell viability, read-out: MV4-11 ED50.
Another series deals with Pim-1 (Homo sapiens (Human), UniProt P11309). Description: ADP-Glo Kinase Assay, Pim-1. The class given is biochemical. Particulars: 1 μM compound; for inhibition at 1 µM: read-out: Pim-1 % INH (1 μM). The method in brief: as §1
Chain of Pim-1 (P11309 whole entry): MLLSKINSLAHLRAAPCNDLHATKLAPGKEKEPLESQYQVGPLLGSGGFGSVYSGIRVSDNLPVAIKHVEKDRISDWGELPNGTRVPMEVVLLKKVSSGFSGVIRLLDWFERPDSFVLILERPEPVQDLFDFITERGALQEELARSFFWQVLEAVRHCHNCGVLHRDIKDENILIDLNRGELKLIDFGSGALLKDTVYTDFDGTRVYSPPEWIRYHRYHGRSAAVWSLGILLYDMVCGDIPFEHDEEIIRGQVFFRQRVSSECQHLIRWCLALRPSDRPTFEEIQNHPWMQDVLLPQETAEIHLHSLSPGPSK
The target in the next series is hERG potassium channel (Homo sapiens (Human), UniProt Q12809). The series is described as follows: hERG automated patch clamp assay (QPatch HT). The method in brief:
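Automated whole-cell patch clamp of hERG current in mammalian cells at room temperature. Compounds applied at 0.1, 1, 3, 10 and 30 μM, 3 min per concentration, n≥2 cells each.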
On the technique in general: The hERG channel carries a current that helps repolarise heart muscle cells.

Another series deals with HepG2 cells. Description: Growth inhibition, MTS assay, HepG2. The format is cell-based, Human. The settings on record: MTS cell viability, read-out: HepG2 ED50.
A further series concerns the target CYP3A4 (Homo sapiens (Human), UniProt P08684). Description: Cytochrome P450 inhibition, fluorescence, CYP3A4. The class given is in vitro ADME. Particulars: recombinant CYP3A4, fluorescence detection; read-out: CYP inhibition (CYP 3A4 screening, IC50 class). In outline: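 Recombinant human CYP3A4 was incubated at 37 °C for 30–45 min with a fluorogenic probe substrate near apparent Km and serially diluted compound, after ≥10 min preincubation with an NADPH-regenerating system. Fluorescence was read after stopping, with compound autofluorescence measured beforehand and no-inhibitor and pre-stopped blanks as controls.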

Results on seven compounds are retold here after patent US10174013B2, “Benzimidazole derivatives as kinase inhibitors” (SELVITA S.A., priority 2012, dated 2019).

Counter-ions that a name gives are not always drawn. Like-named read-outs stand apart in the source and are kept apart here. Where only a bound is given, the exact number is not on record here.

Chain of hERG potassium channel (Q12809 whole entry): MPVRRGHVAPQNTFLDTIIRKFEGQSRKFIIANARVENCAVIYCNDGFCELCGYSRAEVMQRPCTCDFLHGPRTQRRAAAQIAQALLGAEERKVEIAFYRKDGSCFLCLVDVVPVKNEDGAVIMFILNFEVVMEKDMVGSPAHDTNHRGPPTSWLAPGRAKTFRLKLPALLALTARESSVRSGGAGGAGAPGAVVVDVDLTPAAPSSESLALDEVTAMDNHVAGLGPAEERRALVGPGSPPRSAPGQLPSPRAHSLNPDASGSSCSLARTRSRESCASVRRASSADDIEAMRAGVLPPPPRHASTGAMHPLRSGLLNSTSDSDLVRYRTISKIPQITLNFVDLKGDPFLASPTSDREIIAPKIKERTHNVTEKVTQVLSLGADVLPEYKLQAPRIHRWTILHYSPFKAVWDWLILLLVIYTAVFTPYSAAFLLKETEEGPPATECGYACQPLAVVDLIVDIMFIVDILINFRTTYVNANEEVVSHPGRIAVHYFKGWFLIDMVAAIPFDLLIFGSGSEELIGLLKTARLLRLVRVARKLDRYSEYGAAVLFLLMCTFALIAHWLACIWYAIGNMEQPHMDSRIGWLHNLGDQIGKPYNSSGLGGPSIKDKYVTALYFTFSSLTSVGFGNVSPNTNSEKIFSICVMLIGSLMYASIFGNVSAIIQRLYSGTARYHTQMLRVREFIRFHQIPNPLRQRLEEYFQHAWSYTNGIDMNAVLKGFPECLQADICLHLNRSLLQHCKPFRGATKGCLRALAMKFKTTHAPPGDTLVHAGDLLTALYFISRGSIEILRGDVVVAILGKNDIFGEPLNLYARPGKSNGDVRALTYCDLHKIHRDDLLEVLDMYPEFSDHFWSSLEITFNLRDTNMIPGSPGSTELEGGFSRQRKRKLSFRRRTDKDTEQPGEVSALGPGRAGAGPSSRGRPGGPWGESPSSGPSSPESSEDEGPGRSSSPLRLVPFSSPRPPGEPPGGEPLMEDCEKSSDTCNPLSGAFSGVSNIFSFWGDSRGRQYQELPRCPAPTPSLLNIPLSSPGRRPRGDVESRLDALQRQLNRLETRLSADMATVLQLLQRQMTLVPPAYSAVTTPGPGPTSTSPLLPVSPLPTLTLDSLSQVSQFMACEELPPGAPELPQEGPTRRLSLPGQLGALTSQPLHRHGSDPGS
Chain of CYP3A4 (P08684 whole entry): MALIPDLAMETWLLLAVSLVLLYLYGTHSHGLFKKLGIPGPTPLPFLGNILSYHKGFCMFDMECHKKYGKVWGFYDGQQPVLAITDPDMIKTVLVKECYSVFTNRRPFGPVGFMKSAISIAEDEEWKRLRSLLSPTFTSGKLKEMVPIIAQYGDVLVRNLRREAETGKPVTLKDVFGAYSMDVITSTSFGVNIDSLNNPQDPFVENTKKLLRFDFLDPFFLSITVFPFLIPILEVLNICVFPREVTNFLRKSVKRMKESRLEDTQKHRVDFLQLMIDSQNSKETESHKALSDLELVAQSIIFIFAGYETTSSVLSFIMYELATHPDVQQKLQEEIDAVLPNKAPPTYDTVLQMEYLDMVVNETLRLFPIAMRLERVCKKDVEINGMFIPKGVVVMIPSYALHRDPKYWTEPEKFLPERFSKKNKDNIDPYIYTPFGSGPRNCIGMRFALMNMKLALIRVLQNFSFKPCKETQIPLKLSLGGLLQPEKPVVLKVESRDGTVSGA

With `CCCn1c(N2CCNCC2)nc2c([N+](=O)[O-])c(Br)c(Br)cc21` [Example 1M], the “Pim-2 % INH (1 μM)” value on Pim-2 was 44%. Besides, the “Pim-3 % INH (1 μM)” value at Pim-3 is recorded as 73%. Besides, the IC50 in the series with HEL92 cells (72 hours) was 2200 nM; with MV4-11 cells (72 hours), 600 nM; on hERG potassium channel, 520 nM; in the series with HepG2 cells (72 hours) it was 1800 nM; on CYP3A4, 1100 to 3300 nM. For the same compound, the “Pim-1 % INH (1 μM)” value on Pim-1 is listed as >95%.
As for `CC(C)n1c(C2CCNCC2)nc2c([N+](=O)[O-])c(Br)c(Br)cc21` [Example 26A, 5,6-dibromo-4-nitro-2-(piperidin-4-yl)-1-(propan-2-yl)-1H-1,3-benzodiazole], the inhibition at 1 µM is 68% at Pim-2, 90% at Pim-3 and > 95% at Pim-1. The IC50 in the series with HEL92 cells (Homo sapiens, 72 h) is 900 nM; in the series on MV4-11 cells (Homo sapiens, MV4-11, 72 h), 200 nM; in the series on HepG2 cells (Homo sapiens, HepG2, 72 h), 600 nM; at CYP3A4, > 10000 nM.
With `Cl.O=[N+]([O-])c1c(Br)c(Br)cc2c1nc(N1CCNCC1)n2C1CCCC1` [Example 2D, 5,6-dibromo-1-cyclopentyl-4-nitro-2-(piperazin-1-yl)-1H-1,3-benzodiazole hydrochloride], the results for the inhibition at 1 µM on Pim-2, on Pim-3 and at Pim-1 were 53%, > 95% and > 95%, respectively. The IC50 in the series with HEL92 cells (Homo sapiens, 72 h) was 4700 nM; in the series with MV4-11 cells (Homo sapiens, MV4-11, 72 h), 600 nM; against hERG potassium channel it was 1600 nM; in the series on HepG2 cells (Homo sapiens, HepG2, 72 h), 700 nM; on CYP3A4 it was 1100 to 3300 nM.
In the case of `CC(C)n1c(N2CCNCC2)nc2c([N+](=O)[O-])c(Br)c(Br)cc21` [Example 2A, 5,6-dibromo-4-nitro-2-(piperazin-1-yl)-1-(propan-2-yl)-1H-1,3-benzodiazole hydrochloride], the inhibition at 1 µM at Pim-2 was 49%; on Pim-3, 89%; on Pim-1, > 95%. Also, the IC50 with HEL92 cells (Homo sapiens, 72 h) is 700 nM; in the series on MV4-11 cells (Homo sapiens, MV4-11, 72 h) it was 300 nM; on hERG potassium channel, 3060 nM; with HepG2 cells (Homo sapiens, HepG2, 72 h), 600 nM; on CYP3A4, 3300 to 10000 nM.
With `CC(C)n1c(N2CC[C@@H](N)C2)nc2c(C#N)c(Br)c(Br)cc21` [Example 1BI], the inhibition at 1 µM at Pim-2 was 82%; at Pim-3, 95%; on Pim-1, > 95%. The IC50 with HEL92 cells (Homo sapiens, 72 h) is 5100 nM; in the series with MV4-11 cells (Homo sapiens, MV4-11, 72 h) it was 600 nM; against hERG potassium channel (human, 3 min), 5170 nM; in the series on HepG2 cells (Homo sapiens, HepG2, 72 h), 1500 nM; at CYP3A4, 1100 to 3300 nM.
As to `CCn1c(N2CCNCC2)nc2c([N+](=O)[O-])c(Br)c(Br)cc21` [Example 1A, 5,6-dibromo-1-ethyl-4-nitro-2-(piperazin-1-yl)-1H-1,3-benzodiazole hydrochloride], the inhibition at 1 µM was 22% at Pim-2, 65% at Pim-3 and 81% at Pim-1. The IC50 in the series on HEL92 cells (Homo sapiens, 72 hours) was 2600 nM; with MV4-11 cells (Homo sapiens, MV4-11, 72 hours) it was 500 nM; at hERG potassium channel (human, 3 min), 1600 nM; in the series on HepG2 cells (Homo sapiens, HepG2, 72 hours), 1300 nM; on CYP3A4, 3300 to 10000 nM.
As to `CC(C)n1c(N2CCNC[C@H]2C)nc2c([N+](=O)[O-])c(Br)c(Br)cc21` [Example 1AX], at Pim-2, the “Pim-2 % INH (1 μM)” value is on record as 77%. For the same compound, the “Pim-3 % INH (1 μM)” value on Pim-3 is given as 95%. For the same compound, the IC50 is 100 nM in the series with HEL92 cells (72 hours); 100 nM in the series with MV4-11 cells (72 hours); 1230 nM at hERG potassium channel; 100 nM in the series on HepG2 cells (72 hours); 1100 to 3300 nM on CYP3A4. The “Pim-1 % INH (1 μM)” value at Pim-1 is >95%.
